Assay results reported in patent US20250353891A1 (MEDIMMUNE LIMITED, priority 2022, published 2025).
Starred links: 1 amine or outer side, 2 acyl side, 3 side chain; linkers in the order of their positions; H or OH if unused. Non-standard residues stand in square brackets, D forms with d. Residues, ends and D or L forms follow the SMILES beside them. Groups on a side chain read outwards from the residue. *: point of attachment. C20 diacid = O=C(O)CCCCCCCCCCCCCCCCCCC(=O)*; C18 diacid = O=C(O)CCCCCCCCCCCCCCCCC(=O)*; γGlu = O=C(O)[C@H](CCC(=O)[*:2])N[*:1]; αMeF = C[C@](N)(Cc1ccccc1)C(=O)O; AEEA = NCCOCCOCC(=O)O; Aib = CC(C)(N)C(=O)O

Experiments:
[1] = biological target: human glucagon receptor (hGCGR) (Homo sapiens, UniProt P47871); test: cAMP production (HTRF) in CHO cells expressing hGCGR; type: cell-based; design: expressed in transfected cells; settings: Table 6, peptides modified at position 17; cAMP in CHO hGCGR cells; geometric mean; read-out: hGluc-R EC50
Procedure, shortened: (§1)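 Cells were resuspended in assay buffer at batch-optimized density, typically 1×10^5 cells/mL for hGLP-1R and 2×10^5 cells/mL for hGCGR. After 30 min incubation at room temperature with compound, cAMP was measured by two-step HTRF. EC50 values came from 4-parameter logistic fits of % Delta F.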

[2] = biological target: human GLP-1 receptor (hGLP-1R) (Homo sapiens, UniProt P43220); test: cAMP production (HTRF) in CHO cells expressing hGLP-1R; type: cell-based; design: expressed in transfected cells; settings: for EC50: Table 6, peptides modified at position 17, cAMP in CHO hGLP-1R cells, geometric mean, read-out: hGLP-1R EC50; for % Relative Potency Ratio: Table 6, % GLP-1R activity relative to GLP-1 / % GlucR activity relative to glucagon
Procedure, shortened: as §1

Chain of human GLP-1 receptor (hGLP-1R) (P43220 24-463): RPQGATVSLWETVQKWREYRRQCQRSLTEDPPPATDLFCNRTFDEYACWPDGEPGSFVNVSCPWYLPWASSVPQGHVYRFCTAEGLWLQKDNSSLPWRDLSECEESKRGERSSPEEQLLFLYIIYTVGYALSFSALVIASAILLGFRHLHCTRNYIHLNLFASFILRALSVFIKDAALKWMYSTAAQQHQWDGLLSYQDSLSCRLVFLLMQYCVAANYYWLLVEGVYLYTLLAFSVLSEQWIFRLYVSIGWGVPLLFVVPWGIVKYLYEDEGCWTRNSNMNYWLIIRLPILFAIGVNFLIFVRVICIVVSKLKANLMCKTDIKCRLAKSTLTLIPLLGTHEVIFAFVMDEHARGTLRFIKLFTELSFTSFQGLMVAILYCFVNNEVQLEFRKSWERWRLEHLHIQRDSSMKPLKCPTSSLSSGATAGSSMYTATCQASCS
Chain of human glucagon receptor (hGCGR) (P47871 26-477): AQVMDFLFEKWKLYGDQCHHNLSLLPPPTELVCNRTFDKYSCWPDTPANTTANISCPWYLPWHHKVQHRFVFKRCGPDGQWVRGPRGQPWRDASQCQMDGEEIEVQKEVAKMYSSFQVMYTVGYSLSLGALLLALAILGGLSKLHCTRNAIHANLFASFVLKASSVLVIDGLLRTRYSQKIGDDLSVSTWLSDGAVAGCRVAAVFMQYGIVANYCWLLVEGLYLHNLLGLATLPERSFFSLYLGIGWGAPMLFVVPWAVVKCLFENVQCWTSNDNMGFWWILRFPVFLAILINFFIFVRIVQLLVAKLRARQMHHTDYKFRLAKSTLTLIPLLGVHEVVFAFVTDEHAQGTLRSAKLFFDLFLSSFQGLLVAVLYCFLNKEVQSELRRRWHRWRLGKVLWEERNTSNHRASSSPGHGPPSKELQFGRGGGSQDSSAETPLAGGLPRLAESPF

Compound | EC50 [1] | EC50 [2] | % Relative Potency Ratio [2]
CC(C)C[C@H](NC(=O)[C@H](Cc1c[nH]c2ccccc12)NC(=O)[C@H](C)NC(=O)[C@@H](NC(=O)[C@H](Cc1ccccc1)NC(=O)[C@H](CC(=O)O)NC(=O)[C@H](CCC(N)=O)NC(=O)[C@H](C)NC(=O)[C@H](CCCNC(=N)N)NC(=O)[C@H](CCCCNC(=O)COCCOCCNC(=O)COCCOCCNC(=O)CC[C@H](NC(=O)CC[C@H](NC(=O)CCCCCCCCCCCCCCCCCCC(=O)O)C(=O)O)C(=O)O)NC(=O)[C@@H](NC(=O)[C@H](CC(=O)O)NC(=O)[C@H](CC(C)C)NC(=O)[C@](C)(Cc1ccccc1)NC(=O)[C@H](CCCCN)NC(=O)[C@H](CO)NC(=O)[C@@H](NC(=O)[C@H](CC(=O)O)NC(=O)[C@H](CO)NC(=O)[C@@H](NC(=O)[C@H](Cc1ccccc1)NC(=O)[C@@H](NC(=O)CNC(=O)[C@H](CCC(N)=O)NC(=O)C(C)(C)NC(=O)[C@@H](N)Cc1c[nH]cn1)[C@@H](C)O)[C@@H](C)O)C(C)C)[C@@H](C)O)C(C)C)C(=O)N[C@@H](CCC(=O)O)C(=O)N[C@@H](C)C(=O)NC(C)(C)C(=O)NCC(=O)O [Peptide 418] (H-H[Aib]QGTFTSDVSK[αMeF]LDTK([AEEA-AEEA-γGlu-γGlu-C20 diacid])RAQDFVAWLEA[Aib]G-OH; N-terminus assumed) | 0.222 nM | 0.0881 nM | 5.0
CC(C)C[C@H](NC(=O)[C@H](Cc1c[nH]c2ccccc12)NC(=O)[C@H](CCCNC(=N)N)NC(=O)[C@@H](NC(=O)[C@H](Cc1ccccc1)NC(=O)[C@H](CC(=O)O)NC(=O)[C@H](CCC(N)=O)NC(=O)[C@H](C)NC(=O)[C@H](CCCNC(=N)N)NC(=O)[C@H](CCCCNC(=O)COCCOCCNC(=O)COCCOCCNC(=O)CC[C@H](NC(=O)CCCCCCCCCCCCCCCCC(=O)O)C(=O)O)NC(=O)[C@@H](NC(=O)[C@H](CC(=O)O)NC(=O)[C@H](CC(C)C)NC(=O)[C@](C)(Cc1ccccc1)NC(=O)[C@H](CCCCN)NC(=O)[C@H](CO)NC(=O)[C@@H](NC(=O)[C@H](CC(=O)O)NC(=O)[C@H](CO)NC(=O)[C@@H](NC(=O)[C@H](Cc1ccccc1)NC(=O)[C@@H](NC(=O)CNC(=O)[C@H](CCC(N)=O)NC(=O)C(C)(C)NC(=O)[C@@H](N)Cc1c[nH]cn1)[C@@H](C)O)[C@@H](C)O)C(C)C)[C@@H](C)O)C(C)C)C(=O)N[C@@H](CCC(=O)O)C(=O)NC(C)(C)C(=O)N[C@@H](CCC(=O)O)C(=O)O [Peptide 419] (H-H[Aib]QGTFTSDVSK[αMeF]LDTK([AEEA-AEEA-γGlu-C18 diacid])RAQDFVRWLE[Aib]E-OH; N-terminus assumed) | 0.264 nM | 0.0969 nM | 5.4
CC(C)C[C@H](NC(=O)[C@H](Cc1c[nH]c2ccccc12)NC(=O)[C@H](CCCNC(=N)N)NC(=O)[C@@H](NC(=O)[C@H](Cc1ccccc1)NC(=O)[C@H](CC(=O)O)NC(=O)[C@H](CCC(N)=O)NC(=O)[C@H](C)NC(=O)[C@H](CCCNC(=N)N)NC(=O)[C@H](CCCCNC(=O)COCCOCCNC(=O)COCCOCCNC(=O)CC[C@H](NC(=O)CCCCCCCCCCCCCCCCC(=O)O)C(=O)O)NC(=O)[C@H](CCCNC(=N)N)NC(=O)[C@H](CC(=O)O)NC(=O)[C@H](CC(C)C)NC(=O)[C@](C)(Cc1ccccc1)NC(=O)[C@H](CCCCN)NC(=O)[C@H](CO)NC(=O)[C@@H](NC(=O)[C@H](CC(=O)O)NC(=O)[C@H](CO)NC(=O)[C@@H](NC(=O)[C@H](Cc1ccccc1)NC(=O)[C@@H](NC(=O)CNC(=O)[C@H](CCC(N)=O)NC(=O)C(C)(C)NC(=O)[C@@H](N)Cc1c[nH]cn1)[C@@H](C)O)[C@@H](C)O)C(C)C)C(C)C)C(=O)N[C@@H](CC(C)C)C(=O)NC(C)(C)C(=O)N[C@H](C(=O)N[C@@H](CCC(=O)O)C(=O)O)[C@@H](C)O [Peptide 421] (H-H[Aib]QGTFTSDVSK[αMeF]LDRK([AEEA-AEEA-γGlu-C18 diacid])RAQDFVRWLL[Aib]TE-OH; N-terminus assumed) | 0.18 nM | 0.0873 nM | 4.1
CC(C)C[C@H](NC(=O)[C@H](Cc1c[nH]c2ccccc12)NC(=O)[C@H](CCCNC(=N)N)NC(=O)[C@@H](NC(=O)[C@H](Cc1ccccc1)NC(=O)[C@H](CC(=O)O)NC(=O)[C@H](CCC(N)=O)NC(=O)[C@H](C)NC(=O)[C@H](CCCNC(=N)N)NC(=O)[C@H](CCCCNC(=O)COCCOCCNC(=O)COCCOCCNC(=O)CC[C@H](NC(=O)CCCCCCCCCCCCCCCCC(=O)O)C(=O)O)NC(=O)[C@H](CCCNC(=N)N)NC(=O)[C@H](CC(=O)O)NC(=O)[C@H](CC(C)C)NC(=O)[C@](C)(Cc1ccccc1)NC(=O)[C@H](CCCCN)NC(=O)[C@H](CO)NC(=O)[C@@H](NC(=O)[C@H](CC(=O)O)NC(=O)[C@H](CO)NC(=O)[C@@H](NC(=O)[C@H](Cc1ccccc1)NC(=O)[C@@H](NC(=O)CNC(=O)[C@H](CCC(N)=O)NC(=O)C(C)(C)NC(=O)[C@@H](N)Cc1c[nH]cn1)[C@@H](C)O)[C@@H](C)O)C(C)C)C(C)C)C(=O)N[C@@H](CC(C)C)C(=O)NC(C)(C)C(=O)N[C@H](C(=O)N[C@@H](CCC(=O)O)C(N)=O)[C@@H](C)O [Peptide 422] (H-H[Aib]QGTFTSDVSK[αMeF]LDRK([AEEA-AEEA-γGlu-C18 diacid])RAQDFVRWLL[Aib]TE-NH2; N-terminus assumed) | 0.123 nM | 0.0276 nM | 8.9
CC(C)C[C@H](NC(=O)[C@H](Cc1c[nH]c2ccccc12)NC(=O)[C@H](CCCNC(=N)N)NC(=O)[C@@H](NC(=O)[C@H](Cc1ccccc1)NC(=O)[C@H](CC(=O)O)NC(=O)[C@H](CCC(N)=O)NC(=O)[C@H](C)NC(=O)[C@H](CCCNC(=N)N)NC(=O)[C@H](CCCCNC(=O)COCCOCCNC(=O)COCCOCCNC(=O)CC[C@H](NC(=O)CCCCCCCCCCCCCCCCC(=O)O)C(=O)O)NC(=O)[C@H](CCCCN)NC(=O)[C@H](CC(=O)O)NC(=O)[C@H](CC(C)C)NC(=O)[C@](C)(Cc1ccccc1)NC(=O)[C@H](CCCCN)NC(=O)[C@H](CO)NC(=O)[C@@H](NC(=O)[C@H](CC(=O)O)NC(=O)[C@H](CO)NC(=O)[C@@H](NC(=O)[C@H](Cc1ccccc1)NC(=O)[C@@H](NC(=O)CNC(=O)[C@H](CCC(N)=O)NC(=O)C(C)(C)NC(=O)[C@@H](N)Cc1c[nH]cn1)[C@@H](C)O)[C@@H](C)O)C(C)C)C(C)C)C(=O)N[C@@H](CCCCN)C(=O)NC(C)(C)C(=O)N[C@H](C(=O)N[C@@H](CCC(=O)O)C(=O)O)[C@@H](C)O [Peptide 423] (H-H[Aib]QGTFTSDVSK[αMeF]LDKK([AEEA-AEEA-γGlu-C18 diacid])RAQDFVRWLK[Aib]TE-OH; N-terminus assumed) | 2.22 nM | 0.0261 nM | 168.1
CC(C)C[C@H](NC(=O)[C@H](Cc1c[nH]c2ccccc12)NC(=O)[C@H](CCCNC(=N)N)NC(=O)[C@@H](NC(=O)[C@H](Cc1ccccc1)NC(=O)[C@H](CC(=O)O)NC(=O)[C@H](CCC(N)=O)NC(=O)[C@H](C)NC(=O)[C@H](CCCNC(=N)N)NC(=O)[C@H](CCCCNC(=O)COCCOCCNC(=O)COCCOCCNC(=O)CC[C@H](NC(=O)CCCCCCCCCCCCCCCCC(=O)O)C(=O)O)NC(=O)[C@H](CCCCN)NC(=O)[C@H](CC(=O)O)NC(=O)[C@H](CC(C)C)NC(=O)[C@](C)(Cc1ccccc1)NC(=O)[C@H](CCCCN)NC(=O)[C@H](CO)NC(=O)[C@@H](NC(=O)[C@H](CC(=O)O)NC(=O)[C@H](CO)NC(=O)[C@@H](NC(=O)[C@H](Cc1ccccc1)NC(=O)[C@@H](NC(=O)CNC(=O)[C@H](CCC(N)=O)NC(=O)C(C)(C)NC(=O)[C@@H](N)Cc1c[nH]cn1)[C@@H](C)O)[C@@H](C)O)C(C)C)C(C)C)C(=O)N[C@@H](CC(C)C)C(=O)NC(C)(C)C(=O)N[C@H](C(=O)N[C@@H](CCCCN)C(=O)O)[C@@H](C)O [Peptide 424] (H-H[Aib]QGTFTSDVSK[αMeF]LDKK([AEEA-AEEA-γGlu-C18 diacid])RAQDFVRWLL[Aib]TK-OH; N-terminus assumed) | 0.129 nM | 0.0155 nM | 16.5
CC(C)C[C@H](NC(=O)[C@H](Cc1c[nH]c2ccccc12)NC(=O)[C@H](CCCNC(=N)N)NC(=O)[C@@H](NC(=O)[C@H](Cc1ccccc1)NC(=O)[C@H](CC(=O)O)NC(=O)[C@H](CCC(N)=O)NC(=O)[C@H](C)NC(=O)[C@H](CCCNC(=N)N)NC(=O)[C@H](CCCCNC(=O)COCCOCCNC(=O)COCCOCCNC(=O)CC[C@H](NC(=O)CCCCCCCCCCCCCCCCC(=O)O)C(=O)O)NC(=O)[C@H](CCCCN)NC(=O)[C@H](CC(=O)O)NC(=O)[C@H](CC(C)C)NC(=O)[C@](C)(Cc1ccccc1)NC(=O)[C@H](CCCCN)NC(=O)[C@H](CO)NC(=O)[C@@H](NC(=O)[C@H](CC(=O)O)NC(=O)[C@H](CO)NC(=O)[C@@H](NC(=O)[C@H](Cc1ccccc1)NC(=O)[C@@H](NC(=O)CNC(=O)[C@H](CCC(N)=O)NC(=O)C(C)(C)NC(=O)[C@@H](N)Cc1c[nH]cn1)[C@@H](C)O)[C@@H](C)O)C(C)C)C(C)C)C(=O)N[C@@H](CCCCN)C(=O)N[C@@H](C)C(=O)NC(C)(C)C(=O)NCC(=O)O [Peptide 425] (H-H[Aib]QGTFTSDVSK[αMeF]LDKK([AEEA-AEEA-γGlu-C18 diacid])RAQDFVRWLKA[Aib]G-OH; N-terminus assumed) | 0.827 nM | 0.0115 nM | 142.3
